Source: US4670444A, “7-amino-1-cyclopropyl-4-oxo-1, 4-dihydro-quinoline-and naphthyridine-3-carboxylic acids and antibacterial agents containing these compounds” (Bayer Aktiengesellschaft, priority 1980, dated 1987)
Converted amounts (≈) assume the structure as drawn. Where two headings read alike, the source gives them in different places.

Key:
Format in all cases: cell-based
Escherichia coli T 7 = assay: Agar dilution test, Denley multipoint inoculation method; settings: T7, read-out: Minimum inhibitory concentrations in an agar dilution test
Excerpt: (§1) | ^x Denley multipoint inoculation method

Salmonella 683 = assay: as above; settings: read-out: Minimum inhibitory concentrations in an agar dilution test
Excerpt: as §1

Klebsiella 63 = assay: as above
Excerpt: as §1

Pseudomonas 7167 = assay: as above; settings: read-out: Minimum inhibitory concentrations in an agar dilution test
Excerpt: as §1

Escherichia coli 103400 = assay: as above
Excerpt: as §1

Proteus 8228 = assay: as above; settings: read-out: Minimum inhibitory concentrations in an agar dilution test
Excerpt: as §1

Escherichia coli 455/7 = assay: as above
Excerpt: as §1

E. coli A 261 = assay: Agar dilution test, DST medium; settings: 1-2 × 10^3 germs/plate
Excerpt: (§2) DST (dexhase sensitivity test) medium; 1-2 × 10^3 germs/plate

Pseudomonas aeruginasa = assay: Agar dilution test, DST medium; settings: 1-2 × 10^3 germs/plate
Excerpt: as §2

[1] = test system: Staphylococcus aureus 133; assay: Agar dilution test, DST medium; settings: 1-2 × 10^3 germs/plate
Excerpt: as §2

Proteus 1017 = assay: Agar dilution test, DST medium; settings: 1-2 × 10^3 germs/plate
Excerpt: as §2

Klebsiella 8085 = assay: Agar dilution test, DST medium; settings: 1-2 × 10^3 germs/plate
Excerpt: as §2

E. coli Neum. = assay: Agar dilution test, DST medium; settings: 1-2 × 10^3 germs/plate
Excerpt: as §2

[2] = Klebsiella 63, Denley multipoint inoculation method, read-out: Minimum inhibitory concentrations in an agar dilution test
[3] = Escherichia coli 103400, Denley multipoint inoculation method, read-out: Minimum inhibitory concentrations in an agar dilution test
[4] = Proteus 8228, Denley multipoint inoculation method
[5] = Escherichia coli 455/7, Denley multipoint inoculation method, read-out: Minimum inhibitory concentrations in an agar dilution test

| Compound | MIC (Escherichia coli T 7) | MIC (Salmonella 683) | MIC (Klebsiella 63; Klebsiella, 63, read-out: Minimum inhibitory concentrations in an agar dilution test) | MIC (Pseudomonas 7167) | MIC (Escherichia coli 103400; Escherichia coli, 103400, read-out: Minimum inhibitory concentrations in an agar dilution test) | MIC (Proteus 8228) | MIC (Escherichia coli 455/7; Escherichia coli, 455/7, read-out: Minimum inhibitory concentrations in an agar dilution test) | antibacterial action in agar dilution test (E. coli A 261) | antibacterial action in agar dilution test (Pseudomonas aeruginasa) | antibacterial action in agar dilution test [1] | antibacterial action in agar dilution test (Proteus 1017) | antibacterial action in agar dilution test (Klebsiella 8085) | antibacterial action in agar dilution test (E. coli Neum.) | MIC (Klebsiella 63; [2]) | MIC (Escherichia coli 103400; [3]) | MIC (Proteus 8228; [4]) | MIC (Escherichia coli 455/7; [5]) |
| --- | --- | --- | --- | --- | --- | --- | --- | --- | --- | --- | --- | --- | --- | --- | --- | --- | --- |
| CCn1cc(C(=O)O)c(=O)c2ccc(C)nc21 [Nalidixic acid, 1-ethyl-7-methyl-1,8-naphthyrid-4-one-3-carboxylic acid] | 1 µg/mL (≈ 4.31 µM) | 4 µg/mL (≈ 17.2 µM) | 4 µg/mL (≈ 17.2 µM) | 64 µg/mL (≈ 276 µM) | 2 µg/mL (≈ 8.61 µM) | 8 µg/mL (≈ 34.4 µM) | 256 µg/mL (≈ 1100 µM) | – | – | – | – | – | – | – | – | – | – |
| O=C(O)c1cn(C2CC2)c2cc(N3CCNCC3)c(F)cc2c1=O [1-cyclopropyl-6-fluoro-1,4-dihydro-4-oxo-7-piperazino-quinoline-3-carboxylic acid] | – | – | – | – | – | – | – | 0.06 | 0.5 | 0.25-0.5 | 0.03 | 0.06 | 0.06 | – | – | – | – |
| CCn1cc(C(=O)O)c(=O)c2cc(F)c(N3CCNCC3)cc21 | – | – | – | – | – | – | – | 0.125 | 1 | 1 | 0.06 | 0.25 | 0.25 | – | – | – | – |
| O=C(O)c1cn(C2CC2)c2cc(N3CCNCC3)ncc2c1=O | – | – | – | – | – | – | – | 1 | 4 | 8 | 0.5 | 1 | 1 | – | – | – | – |
| CCn1cc(C(=O)O)c(=O)c2cnc(N3CCNCC3)nc21 [Pipemidic acid, 2-piperazino-8-ethyl-5-oxo-5,8-dihydropyrido 2,3-d pyrimidine-6-carboxylicacid] | 2 µg/mL (≈ 6.59 µM) | 2 µg/mL (≈ 6.59 µM) | – | 16 µg/mL (≈ 52.7 µM) | – | – | – | – | – | – | – | – | – | 2 µg/mL (≈ 6.59 µM) | 1 µg/mL (≈ 3.3 µM) | 4 µg/mL (≈ 13.2 µM) | 128 µg/mL (≈ 422 µM) |
| CN1CCN(c2cc3c(cn2)c(=O)c(C(=O)O)cn3C2CC2)CC1 [Example 1, 7-(4-Methylpiperazino)-1-cyclopropyl-4-oxo-1,4-dihydro-1,6-naphthyridine-3-carboxylic acid] | 0.25 µg/mL (≈ 0.761 µM) | 0.5 µg/mL (≈ 1.52 µM) | – | 8 µg/mL (≈ 24.4 µM) | – | – | – | – | – | – | – | – | – | 1 µg/mL (≈ 3.05 µM) | 0.25 µg/mL (≈ 0.761 µM) | 2 µg/mL (≈ 6.09 µM) | 128 µg/mL (≈ 390 µM) |
